Consider 6 molecules from US4808584A, “Quinolinecarboxylic acid derivatives and antibacterial agent containing the same” (Kanebo, Ltd., priority 1987, dated 1989).

≈ marks a conversion by molar mass, not a printed value. Where a name gives a salt, the structure may show the parent alone. Read-outs that look alike come from different tables or passages of the source.

Experiment in all cases: Minimum inhibitory concentration (MIC)
Holding throughout (assay type): cell-based

Assay [1] deals with Acinetobacter calcoaceticus AC 54. The conditions noted are these: for MIC: Acinetobacter calcoaceticus, AC54, Acinetobacter calcoaceticus AC 54, Gram -. How it is done: (§1) The compounds of the present invention (A, C, E, F, G, H and I) and ofloxacin as control were dissolved in 0.1N aqueous potassium hydroxide to prepare a solution of 5000 μg/ml in concentration. The compounds of the present invention (B, D and J) were dissolved in sterilized distilled water to prepare a solution of 5000 μg/ml in concentration. Each solution was diluted with sterilized distilled water to prepare a standard solution with a concentration of each test compound: 1000 μg/ml. The test was carried out by a method approved by Japan Society of Chemotherapy [cf. Chemotherapy, 29, 76-79 (1981)(TOKYO)].

In assay [2] the test system is Morganella morganii IFO 3848. As to conditions: IFO3848; Morganella morganii IFO 3848, Gram -. How it is done: as §1
Assay [3] deals with Pseudomonas aeruginosa NCTC 10490. As to conditions: for MIC: Pseudomonas aeruginosa, NCTC10490, Pseudomonas aeruginosa NCTC 10490, Gram -. How it is done: as §1
For assay [4], the system named is Serratia marcescens IAM 1184. As to conditions: Serratia marcescens, IAM1184, Serratia marcescens IAM 1184, Gram -. How it is done:
as §1

Assay [5] has as its system Enterobacter aerogenes ATCC 13048. The conditions noted are these: for MIC: Klebsiella aerogenes, ATCC13048, Enterobacter aerogenes ATCC 13048, Gram -. How it is done: as §1
Assay [6] deals with Staphylococcus epidermidis IAM-1296. As to conditions: for MIC: Staphylococcus epidermidis, IAM1296, Staphylococcus epidermidis IAM-1296, Gram +. How it is done:
as §1

The test system of assay [7] is Salmonella typhimurium IID 971. The conditions noted are these: for MIC: Salmonella enterica, read-out: Minimum inhibitory concentration (MIC). How it is done: as §1
Assay [8] relates to Pseudomonas aeruginosa E-2. As to conditions: E2; Pseudomonas aeruginosa E-2, Gram -. How it is done: as §1
Assay [9] has as its system Micrococcus luteus ATCC 9341. As to conditions: ATCC9341; Micrococcus luteus ATCC 9341, Gram +. How it is done:
as §1

For assay [10], the system named is Citrobacter freundii NIHJ 10018-68. As to conditions: NIHJ10018; Citrobacter freundii NIHJ 10018-68, Gram -. How it is done: as §1
Assay [11] relates to Streptococcus faecalis IID 682. The conditions noted are these: Enterococcus faecalis, IID682, Streptococcus faecalis IID 682, Gram +. How it is done: as §1
The subject of assay [12] is Staphylococcus aureus FDA 209P JC-1. As to conditions: FDA209P; Staphylococcus aureus FDA 209P JC-1, Gram +. How it is done: as §1
For assay [13], the system named is Pseudomonas aeruginosa IFO 3445. As to conditions: Pseudomonas aeruginosa, IFO3445, Pseudomonas aeruginosa IFO 3445, Gram -. How it is done: as §1
The test system of assay [14] is Klebsiella pneumoniae PCI 602. As to conditions: for MIC: Klebsiella pneumoniae, PCI602, Klebsiella pneumoniae PCI 602, Gram -, read-out: Minimum inhibitory concentration (MIC). How it is done: as §1
The next assay relates to Escherichia coli KC-14. The conditions noted are these: KC14; Escherichia coli KC-14, Gram -. How it is done: as §1
The next assay has as its system Enterobacter cloacae 963. As to conditions: Enterobacter cloacae 963, Gram -. How it is done:
as §1

For assay [15], the system named is Bacillus subtilis ATCC 6633. How it is done:
as §1

The test system of another assay is Proteus vulgaris OX-19. How it is done: as §1
The subject of assay [16] is Proteus mirabilis IFO 3849. The conditions noted are these: IFO3849; Proteus mirabilis IFO 3849, Gram -. How it is done: as §1
The next assay deals with Shigella sonnei EW-33. The conditions noted are these: EW33; Shigella sonnei EW-33, Gram -. How it is done: as §1
Assay [17] has as its system Staphylococcus aureus IID 803. The conditions noted are these: IID803; Staphylococcus aureus IID 803, Gram +; read-out: Minimum inhibitory concentration (MIC). How it is done: as §1
Assay [18] deals with Escherichia coli NIHJ JC-2. The conditions noted are these: NIHJJC2; Escherichia coli NIHJ JC-2, Gram -. How it is done: as §1
The mark [19] stands for this setting: Salmonella typhimurium IID 971, Gram -.
The mark [20] stands for this setting: OX19, Proteus vulgaris OX-19, Gram -, read-out: Minimum inhibitory concentration (MIC).
[21] abbreviates: ATCC6633, Bacillus subtilis ATCC 6633, Gram +, read-out: Minimum inhibitory concentration (MIC).

In the case of `O=C(O)c1c(=O)c2cc(F)c(N3CCN(O)CC3)c3c2n2c(csc12)CO3` [Compound (F), 9,1-Epoxymethano-7-fluoro-8-(4-hydroxy-1-piperazinyl)-5-oxo-5H-thiazolo[3,2-a]quinoline-4-carboxylic acid.1/4hydrate], the MIC is 1.56 µg/mL in assay [1]; 0.1 µg/mL in assay [2]; 0.78 µg/mL in assay [3]; 0.78 µg/mL in assay [4]; 0.1 µg/mL in [5]; 1.56 µg/mL in assay [6]. Besides, the MIC in [7] (setting [19]) is 0.05 µg/mL; in [8], 1.56 µg/mL; in assay [9], 6.25 µg/mL; in [10], 0.2 µg/mL; in assay [11] it was 1.56 µg/mL; in assay [12] it was 0.39 µg/mL. In addition, the MIC in assay [13] was 1.56 µg/mL; in assay [14] it was 0.025 µg/mL; against Escherichia coli KC-14, 0.1 µg/mL; in the assay on Enterobacter cloacae 963, 0.2 µg/mL; in assay [15] (Bacillus subtilis, ATCC6633, read-out: Minimum inhibitory concentration (MIC)), 0.1 µg/mL; in the assay on Proteus vulgaris OX-19 (setting [20]), 0.05 µg/mL. Also, the MIC stood at 0.2 µg/mL in assay [16], 0.05 µg/mL against Shigella sonnei EW-33, 0.39 µg/mL in [17] and 0.2 µg/mL in assay [18].
In the case of `CC1CN(c2c(F)cc3c(=O)c(C(=O)O)c4scc5n4c3c2OC5)CCN1` (stereo not shown) [Compound (E), 9,1-Epoxymethano-7-fluoro-8-(3-methyl-1-piperazinyl)-5-oxo-5H-thiazolo[3,2-a]quinoline-4-carboxylic acid.1/4hydrate], the MIC in [1] was 0.78 µg/mL; in assay [2] it was 0.1 µg/mL; in assay [3] it was 0.78 µg/mL; in [4], 0.39 µg/mL; in assay [5], 0.1 µg/mL; in assay [6] it was 0.78 µg/mL. The MIC in assay [7] (setting [19]) was 0.1 µg/mL; in assay [8], 0.78 µg/mL; in [9] it was 3.13 µg/mL; in [10], 0.78 µg/mL; in assay [11], 0.78 µg/mL; in assay [12] it was 0.2 µg/mL. Also, the MIC in assay [13] is 1.56 µg/mL; in assay [14], 0.025 µg/mL; with Escherichia coli KC-14, 0.1 µg/mL; in the assay with Enterobacter cloacae 963 it was 0.2 µg/mL; in assay [15] (setting [21]) it was 0.1 µg/mL; in the assay with Proteus vulgaris OX-19 (Proteus vulgaris, OX19, read-out: Minimum inhibitory concentration (MIC)) it was 0.05 µg/mL. The MIC came out at 0.2 µg/mL in assay [16], 0.1 µg/mL in the assay on Shigella sonnei EW-33, 0.2 µg/mL in [17] and 0.2 µg/mL in assay [18].
With `O=C(O)c1c(=O)c2cc(F)c(N3CCC(O)C3)c3c2n2c(csc12)CO3` (stereo not shown) [Compound (H), 9,1-Epoxymethano-7-fluoro-8-(3-hydroxy-1-pyrrolidinyl)-5-oxo-5H-thiazolo[3,2-a]quinoline-4-carboxylic acid], the MIC in [1] is 0.1 µg/mL (≈ 0.266 µM); in [2], 0.1 µg/mL (≈ 0.266 µM); in assay [3], 0.39 µg/mL (≈ 1.04 µM); in assay [4] it was 0.39 µg/mL (≈ 1.04 µM); in assay [5], 0.1 µg/mL (≈ 0.266 µM); in assay [6] it was 0.2 µg/mL. For the same molecule, the MIC in assay [7] (setting [19]) turned out to be 0.0125 µg/mL (≈ 0.0332 µM); in assay [8], 0.39 µg/mL (≈ 1.04 µM); in assay [9], 0.78 µg/mL; in assay [10], 0.39 µg/mL (≈ 1.04 µM); in assay [11], 0.2 µg/mL; in [12], 0.025 µg/mL. Further, the MIC in assay [13] was determined as 0.39 µg/mL (≈ 1.04 µM); in assay [14] it was 0.006 µg/mL (≈ 0.0159 µM); against Escherichia coli KC-14, 0.05 µg/mL (≈ 0.133 µM); in the assay with Enterobacter cloacae 963 it was 0.1 µg/mL (≈ 0.266 µM); in assay [15] (setting [21]), 0.006 µg/mL (≈ 0.0159 µM); in the assay with Proteus vulgaris OX-19 (setting [20]), 0.0125 µg/mL (≈ 0.0332 µM). Further, the MIC in assay [16] is 0.1 µg/mL (≈ 0.266 µM); in the assay on Shigella sonnei EW-33 it was 0.05 µg/mL (≈ 0.133 µM); in [17], 0.025 µg/mL (≈ 0.0664 µM); in assay [18], 0.05 µg/mL (≈ 0.133 µM).
On to `O=C(O)c1c(=O)c2cc(F)c(N3CCNCC3)c3c2n2c(csc12)CO3` [Compound (D), 9,1-Epoxymethano-7-fluoro-8-(1-piperazinyl)-5-oxo-5H-thiazolo[3,2-a]quinoline-4-carboxylic acid.hydrochloride.1/2hydrate], for which the “Minimum inhibitory concentration (MIC)” value in assay [1] (Acinetobacter calcoaceticus AC 54, Gram -) is 1.56 µg/mL; in assay [3] (Pseudomonas aeruginosa NCTC 10490, Gram -) it was 0.78 µg/mL; in [5] (Enterobacter aerogenes ATCC 13048, Gram -) it was 0.20 µg/mL; in assay [6] (Staphylococcus epidermidis IAM-1296, Gram +), 1.56 µg/mL; in assay [7] (setting [19]) it was 0.10 µg/mL; in assay [14] (Klebsiella pneumoniae PCI 602, Gram -), 0.025 µg/mL.
`CCN1CCN(c2c(F)cc3c(=O)c(C(=O)O)c4scc5n4c3c2OC5)CC1` [Compound (J), 9,1-Epoxymethano-7-fluoro-8-(4-ethyl-1-piperazinyl)-5-oxo-5H-thiazolo[3,2-a]quinoline-4-carboxylic acid.hydrochloride.1/2hydrate]: the MIC in assay [1] was 0.1 µg/mL; in assay [2], 0.1 µg/mL; in assay [3] it was 0.78 µg/mL; in assay [4], 0.39 µg/mL; in assay [5], 0.1 µg/mL; in assay [6], 0.39 µg/mL. Moreover, the MIC in assay [7] came out at 0.05 µg/mL; in assay [8] it was 1.56 µg/mL; in assay [9] it was 3.13 µg/mL; in assay [10] it was 0.39 µg/mL; in assay [11], 0.78 µg/mL; in assay [12], 0.2 µg/mL. Moreover, the MIC in assay [13] is 3.13 µg/mL; in [14], 0.025 µg/mL; with Escherichia coli KC-14 it was 0.1 µg/mL; in the assay on Enterobacter cloacae 963, 0.1 µg/mL; in [15] (setting [21]), 0.1 µg/mL; with Proteus vulgaris OX-19 (setting [20]), 0.05 µg/mL. Besides, the MIC in [16] was 0.39 µg/mL; against Shigella sonnei EW-33 it was 0.1 µg/mL; in assay [17], 0.2 µg/mL; in assay [18], 0.1 µg/mL.
In the case of `CN1CCN(c2c(F)cc3c(=O)c(C(=O)O)c4scc5n4c3c2OC5)CC1` [Compound (A), 9,1-Epoxymethano-7-fluoro-8-(4-methyl-1-piperazinyl)-5-oxo-5H-thiazolo[3,2-a]quinoline-4-carboxylic acid], the MIC in assay [1] was 0.2 µg/mL (≈ 0.514 µM); in [2], 0.1 µg/mL (≈ 0.257 µM); in assay [3], 0.78 µg/mL (≈ 2 µM); in [4], 0.2 µg/mL (≈ 0.514 µM); in assay [5], 0.1 µg/mL (≈ 0.257 µM); in assay [6] it was 0.39 µg/mL. The MIC is 0.05 µg/mL (≈ 0.128 µM) in assay [7] (setting [19]); 0.78 µg/mL (≈ 2 µM) in [8]; 1.56 µg/mL in [9]; 0.2 µg/mL (≈ 0.514 µM) in assay [10]; 0.39 µg/mL in [11]; 0.2 µg/mL in [12]. Further, the MIC in [13] was determined as 0.78 µg/mL (≈ 2 µM); in the assay on Escherichia coli KC-14 it was 0.1 µg/mL (≈ 0.257 µM); with Enterobacter cloacae 963, 0.1 µg/mL (≈ 0.257 µM); in assay [15] (setting [21]), 0.1 µg/mL (≈ 0.257 µM); in the assay with Proteus vulgaris OX-19 (setting [20]), 0.05 µg/mL (≈ 0.128 µM); in [16] it was 0.2 µg/mL (≈ 0.514 µM). The MIC against Shigella sonnei EW-33 was found to be 0.05 µg/mL (≈ 0.128 µM); in [17], 0.2 µg/mL (≈ 0.514 µM); in assay [18], 0.1 µg/mL (≈ 0.257 µM).
